Test results reported in US20110129844A1, “Use of Activating Transcription Factor-2 (ATF2) for Detecting Skin Cancer” (priority 2007, published 2011).
Where two headings read alike, the source gives them in different places.

Key:
epidermis = settings: three topical applications of TPA at 10 μg each; for thickness of hyperplastic epidermis (mean±SD): 18 hrs post treatment; for thickness of epidermal layers: after 48 hrs
Experimental: Measurement of Hyperplasia. Hyperplasia was assessed in six WT and K14.ATF2^f/f mice (8-week-old) after treatment with acetone or TPA at the indicated time points. The thickness of the epidermis (μm) was measured using an image system (SlideBook-Intelligent imaging) in 15 fields per section.
In order to determine the possible effect of ATF2 disruption on keratinocyte proliferation possible changes in epidermal hyperplasia was assessed.

basal epidermal cells = experiment: BrdU incorporation in basal keratinocytes after TPA treatment; type: in vivo, mice
Experimental: 5-bromo-2-deoxyuridine (BrdU) incorporation. 8-week-old K14.ATF2^f/f mice and WT mice were shaved 2 days before treatment with TPA (10 μg/200 μl acetone). BrdU (0.1 mg/g body weight) was injected intraperitoneally 1 h before the mice were sacrificed. The mice were euthanized 7, 24 and 48 h after six TPA treatments and their dorsal skins were removed, fixed in formalin and processed for paraffin embedding. Immunohistochemical staining was performed with a monoclonal anti-BrdU antibody (Sigma Aldrich, 1:100), which was applied to each section overnight at 4° C. after masking mouse IgG according to the protocol of the M.O.M. kit. […] BrdU positive and negative basal cells were counted in three to five randomly selected areas of each skin section (3-4 sections per mouse) and the mean percentage of BrdU-positive cells and standard deviation (s.d.) for each treatment group were determined.
Induced DNA synthesis in basal epidermal cells of TPA-treated K14.ATF2^f/f mice. In light of the enhanced hyperplastic responses seen in the epidermis of K14.ATF2^f/f mice, possible changes in the rate of keratinocyte proliferation, which could account for the increased hyperplasia, were assessed. BrdU labeling was carried out to quantify DNA synthesis in basal keratinocytes. […]

SMILES | mice having developed tumors (epidermal keratinocytes; mouse, in vivo) [%] | mice that had developed tumors (epidermal keratinocytes; mouse, in vivo) | papilloma development (epidermal keratinocytes; mouse, in vivo) | time at which papillomas started to appear after DMBA treatment (epidermal keratinocytes; mouse, in vivo) | thickness of hyperplastic epidermis (mean±SD) (epidermis; K14.ATF2f/f mice) [μm] | thickness of epidermal layers (epidermis; K14.ATF2f/f mice) [μm] | thickness of hyperplastic epidermis (mean±SD) (epidermis; WT mice) [μm] | thickness of epidermal layers (epidermis; wild-type mice) [μm] | percentage of BrdU-labeled basal cells (basal epidermal cells; K14.ATF2f/f mice, 24 h after TPA treatment) [%] | percentage of BrdU-labeled basal cells (basal epidermal cells; wild-type mice, 24 hours after TPA treatment) [%] | papilloma development (epidermal keratinocytes; DMBA or TPA alone, WT or ATF2 mutant mice)
Cc1c2ccccc2c(C)c2c1ccc1ccccc12 [DMBA, 7,12-dimethylbenz[a]anthracene] | 50 | about 40% | did not result in papilloma development | around 17 weeks |  |  |  |  |  |  | 
CCCCCCCCCCCCCC(=O)O[C@@H]1[C@@H](C)[C@@]2(O)[C@@H](C=C(CO)C[C@]3(O)C(=O)C(C)=C[C@@H]23)[C@H]2C(C)(C)[C@]12OC(C)=O [TPA] |  |  |  |  | 42±3.2 | 102±2.8 | 21±2.6 | 45±2.3 | 32±3.0 | 15±3 | did not result in papilloma development
